Common to all, as to type: biochemical
For one assay, the target named is T1, human VEGFR2 (Homo sapiens, UniProt P35968).
T1 construct: GST-tagged recombinant kinase domain of the human VEGFR2; GST; host or cells: SF-9 cells
The assay is described as follows: VEGFR2 HTRF Assay (assay 5). The note with it: pIC50 class; 10 μM ATP; read-out: Enzymatic VEGFR2 activity (assay 5). From the text: Assay 5: VEGFR2 HTRF Assay
VEGFR2 inhibitory activity of compounds of the present invention was quantified employing the VEGFR2 HTRF assay as described in the following paragraphs.
GST-tagged recombinant kinase domain of the human VEGFR2 expressed in SF-9 cells was used as kinase. As substrate for the kinase reaction the biotinylated peptide biotin-Ahx-DFGLARDMYDKEYYSVG (C-terminus in acid form) was used which can be purchased e.g. form the company Biosynthan GmbH (Berlin-Buch, Germany). VEGFR2 was incubated for 45 min at 22° C. in the presence of different concentrations of test compounds in 5 μl assay buffer [50 mM Hepes/NaOH pH 7.0, 25 mM MgCl2, 5 mM MnCl2, 1.0 mM dithiothreitol, 0.1 mM sodium ortho-vanadate, 10 μM adenosine-tri-phosphate (ATP), 0.5 μM substrate, 0.001% (v/v) Nonidet-P40 (Sigma), 1% (v/v) dimethylsulfoxide]. The concentration of VEGFR2 was adjusted depending of the activity of the enzyme lot and was chosen appropriate to have the assay in the linear range. The reaction was stopped by the addition of 5 μl of a solution of HTRF detection reagents (0.1 μM streptavidine-XLent and 2 nM PT66-Eu-Chelate, an europium-chelate labelled anti-phospho-tyrosine antibody from Perkin Elmer) in an aqueous EDTA-solution (125 mM EDTA, 0.2% (w/v) bovine serum albumin in 50 mM HEPES/NaOH pH 7.0).
(§1) The resulting mixture was incubated for 1 h at 22° C. to allow the binding of the biotinylated phosphorylated peptide to the streptavidine-XLent and the PT66-Eu-Chelate. Subsequently the amount of phosphorylated substrate was evaluated by measurement of the resonance energy transfer from the PT66-Eu-Chelate to the streptavidine-XLent. Therefore, the fluorescence emissions at 620 nm and 665 nm after excitation at 350 nm was measured in a HTRF reader, e.g. a Rubystar (BMG Labtechnologies, Offenburg, Germany) or a Viewlux (Perkin-Elmer). The ratio of the emissions at 665 nm and at […] was taken as the measure for the amount of phosphorylated substrate. The data were normalized (enzyme reaction without inhibitor=0% inhibition, all other assay components but no enzyme=100% inhibition) and IC50 values were calculated by a 4 parameter fit using an inhouse software.
For orientation: In TR-FRET formats the signal depends on donor and acceptor labels being close together.

Another assay deals with T2, Tie-2 (Homo sapiens, UniProt Q02763).
T2 construct: fusion protein of GST and the intracellular domains of Tie-2; GST; made in house; host or cells: insect cells (Hi-5)
T2 sequence (Q02763 770-1124 limits assumed, species assumed): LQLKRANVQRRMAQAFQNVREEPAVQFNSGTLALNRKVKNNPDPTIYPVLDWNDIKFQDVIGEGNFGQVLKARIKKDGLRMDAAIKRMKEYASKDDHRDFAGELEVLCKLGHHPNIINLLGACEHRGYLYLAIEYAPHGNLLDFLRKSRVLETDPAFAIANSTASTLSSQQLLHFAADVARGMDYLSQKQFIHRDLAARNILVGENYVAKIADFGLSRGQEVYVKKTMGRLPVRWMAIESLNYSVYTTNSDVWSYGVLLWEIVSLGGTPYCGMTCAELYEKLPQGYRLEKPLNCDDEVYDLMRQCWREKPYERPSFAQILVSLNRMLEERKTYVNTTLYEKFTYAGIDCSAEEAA
The assay is described as follows: Tie-2-Kinase HTRF-Assay (assay 2). To be noted: pIC50 class; 10 μM ATP; read-out: Enzymatic Tie 2 activity (assay 2).
Source text: Tie2-inhibitory activity of compounds of the present invention was quantified employing two Tie2 HTRF assay as described in the following paragraphs.
A recombinant fusion protein of GST and the intracellular domains of Tie-2, expressed in insect cells (Hi-5) and purified by Glutathion-Sepharose affinity chromatography was used as kinase. Alternatively, commercially available GST-Tie2-fusion protein (Upstate Biotechnology, Dundee, Scotland) can be used As substrate for the kinase reaction the biotinylated peptide biotin-Ahx-EPKDDAYPLYSDFG (C-terminus in amid form) was used which can be purchased e.g. from the company Biosynthan GmbH (Berlin-Buch, Germany). Detection of phosphorylated product is achieved specifically by a trimeric detection complex consisting of the phosphorylated substrate, streptavidin-XLent (SA-XLent) which binds to biotin, and Europium Cryptate-labeled anti-phosphotyrosine antibody PT66 which binds to phosphorylated tyrosine.
Tie-2 (3.5 ng/measurement point) was incubated for 60 min at 22° C. in the presence of 10 μM adenosine-tri-phosphate (ATP) and 1 μM substrate peptide (biotin-Ahx-EPKDDAYPLYSDFG-NH2) with different concentrations of test compounds (0 μM and concentrations in the range 0.001-20 μM) in 5 μl assay buffer [50 mM Hepes/NaOH pH 7, 10 mM MgCl2, 0.5 mM MnCl2, 1.0 mM dithiothreitol, 0.01% NP40, protease inhibitor mixture (“Complete w/o EDTA” from Roche, 1 tablet per 2.5 ml), 1% (v/v) dimethylsulfoxide]. The reaction was stopped by the addition of 5 μl of an aqueous buffer (25 mM Hepes/NaOH pH 7.5, 0.28% (w/v) bovine serum albumin) containing EDTA (90 mM) and the HTRF (Homogeneous Time Resolved Fluorescence) detection reagents streptavidine-XLent (0.2 μM, from Cis Biointemational, Marcoule, France) and PT66-Eu-Chelate (0.3 ng/μl; a europium-chelate labelled anti-phospho-tyrosine antibody from Perkin Elmer).
as §1, with “incubated” for “incubated for”, “substrate peptide” for “substrate”, “substrate peptide.” for “substrate.”, “normalised” for “normalized”, “inhibitor=0 (%” for “inhibitor=0%”

Assay [1] has as its target T3, human insuline receptor (Ins-R) (Homo sapiens, UniProt P06213).
T3 construct: GST-tagged recombinant kinase domain of the human insuline receptor; GST; purchased ProQinase, Freiburg, Germany; host or cells: SF-9 cells
The assay is described as follows: Insulin Receptor HTRF Assay (assay 4). To be noted: pIC50 class; 10 μM ATP; read-out: Enzymatic InsR activity (assay 4). The procedure:
Assay 4: Insulin Receptor HTRF Assay
Inhibitory activity of compounds against the kinase activity of the insulin receptor was quantified employing the Ins-R HTRF assay as described in the following paragraphs.
GST-tagged recombinant kinase domain of the human insuline receptor (Ins-R, purchase from ProQinase, Freiburg, Germany) expressed in SF-9 cells was used as kinase. As substrate for the kinase reaction biotinylated poly-(Glu, Tyr) (Cis biointernational, France) was used.
Ins-R was incubated for 20 min at 22° C. in the presence of different concentrations of test compounds in 5 μl assay buffer [50 mM Hepes/NaOH pH 7, 15 mM MnCl2, 1 mM dithiothreitol, 0.1 μM sodium ortho-vanadate, 0.015% (v/v) PEG20000, 10 μM adenosine-tri-phosphate (ATP), 0.3 μg/ml substrate, 1% (v/v) dimethylsulfoxide]. The concentration of Ins-R was adjusted depending of the activity of the enzyme lot and was chosen appropriate to have the assay in the linear range, typical concentrations were in the range of 10 pg/μl. The reaction was stopped by the addition of 5 μl of a solution of HTRF detection reagents (0.1 μM streptavidine-XLent and 1 nM PT66-Eu-Chelate, an europium-chelate labelled anti-phospho-tyrosine antibody from Perkin Elmer) in an aqueous EDTA-solution (80 mM EDTA, 0.2% (w/v) bovine serum albumin in 50 mM HEPES/NaOH pH 7.0).
as §1, with “incubated” for “incubated for”, “normalised” for “normalized”

Some results are limits rather than exact numbers.

T1 sequence (P35968 834-1162 limits assumed): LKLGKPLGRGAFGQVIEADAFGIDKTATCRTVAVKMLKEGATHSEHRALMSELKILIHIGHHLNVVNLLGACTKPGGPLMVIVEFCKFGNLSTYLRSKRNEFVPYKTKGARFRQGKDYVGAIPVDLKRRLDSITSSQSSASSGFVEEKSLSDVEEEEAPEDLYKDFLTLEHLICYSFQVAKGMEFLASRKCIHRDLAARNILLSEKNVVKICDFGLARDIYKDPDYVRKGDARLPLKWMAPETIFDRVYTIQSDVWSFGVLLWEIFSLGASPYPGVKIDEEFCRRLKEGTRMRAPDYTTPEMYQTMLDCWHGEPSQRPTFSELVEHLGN
T3 sequence (P06213 1023-1298 limits assumed): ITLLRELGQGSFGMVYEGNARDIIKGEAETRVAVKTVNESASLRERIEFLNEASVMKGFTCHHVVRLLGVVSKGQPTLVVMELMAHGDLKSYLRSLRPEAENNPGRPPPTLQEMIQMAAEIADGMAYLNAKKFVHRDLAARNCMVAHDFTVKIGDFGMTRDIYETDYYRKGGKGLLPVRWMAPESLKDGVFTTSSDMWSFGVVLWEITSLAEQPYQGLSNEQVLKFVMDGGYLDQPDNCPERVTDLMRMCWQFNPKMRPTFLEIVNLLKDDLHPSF

In the case of `Cn1ncc2c(C#Cc3cc(NC(=O)Nc4cccc(C(F)(F)F)c4)ccc3F)cncc21` [Example 2.6, 1-[4-Fluoro-3-(1-methyl-1H-pyrazolo[3,4-c]pyridin-4-ylethynyl)-phenyl]-3-(3-trifluoromethyl-phenyl)-urea], the IC50 is less than 1000 nM on human VEGFR2, less than 1000 nM on Tie-2 and no less than 10 µM in assay [1].
